Test results published in US20210290680A1, “METHODS AND COMPOSITIONS FOR MODULATING CELLULAR AGING” (Dorian Therapeutics, Inc., priority 2019, published 2021).

System: NALM cells
Experiment: Re-challenge cytotoxicity assay, CD19.CAR T cells
Assay type: cell-based, human
Details: after double tumor-challenge, n=3
Procedure: Primary T cells were activated as described (Example 3), transduced with a lentivirus encoding for either a CD19.CAR or a GD2.CAR co-expressing shUSP16 #1, shUSP16 #2 or a scrambled shRNA (Control). Cells were cultured in IL-2 and sorted between days 6-13 for EGFRt. At day 16 cytotoxicity assays were performed. Briefly, cells were counted and 100,000 T cells (adjusted for EGFR expression) were plated at 1:5 Effector:Target (E:T) ratio. At 72 hours, the mixture of tumor cells and T cells were collected, stained for CD3-PE, CD8-BV510, CD19- or GD2-APC, EGFR-AF488 and Sytox and counted by flow cytometry (MACSQuant, Miltenyi Biotec) (FIGS. 30A and 30B). Counting beads (CountBright Absolute Counting beads, Invitrogen) were added before acquisition and absolute number was calculated as following (number of cell events/number of bead events)×(assigned bead count of the lot (beads/50 ul)/volume of sample (ul))=concentration of sample as cells/ul). NALM cells were used as target cells for CD19.CAR T cells and CHLA-55 cells were used as target for GD2.CAR T cells. Three different primary T cell cultures were tested for CD19 and GD2 CAR.
At day 16, regular cytotoxicity assays were also performed (Example 22). Three days post-antigen stimulation, CD19.CAR T cells were stained for EGFR-AF488 (R&D), CD3-PE, CD8-BV510, PD-1-Allophycocyanin and Lag-3 and CTLA4 (Biolegend) and acquired by MACSQuant (Miltenyi Biotec). The co-cultures we also re-challenged with the addition of fresh tumor cells. T cell killing and expansion upon double tumor-challenge was assessed after three days.

shUSP16 #1: shRNA targeting USP16, 5′-GACTGTAAGACTGACAATAAA-3′ (SEQ ID NO: 8), pSIH backbone or co-expressed in CAR plasmid
T cell number: 192643
residual tumor cells (NALM): 282761

shUSP16 #2: shRNA targeting USP16, 5′-TATATCAGTTCACCCGTAAT-3′ (SEQ ID NO: 9), pSIH backbone or co-expressed in CAR plasmid
T cell number: 204291
residual tumor cells (NALM): 160874
